Experimental data taken from patent US11230547B2, “Purine inhibitors of human phosphatidylinositol 3-kinase delta” (Merck Sharp & Dohme Corp., priority 2017, dated 2022).

Tests used:
PI3Kalpha = PI3Kalpha (Homo sapiens (Human), UniProt P42336); experiment: HTRF PI3K biochemical assay, alpha isoform (selectivity versus delta); conditions: relative ratio PI3K-alpha IC50 value / PI3K-delta IC50 value
Source text: (§1) HTRF PI3K Biochemical Assay to Measure Intrinsic Potency of Compound Inhibitors
(§2) The PI3-Kinase biochemical assays were developed to measure the intrinsic potency and compound dependent inhibition of the alpha, beta, delta, and gamma PI3K isoform enzymes. This assay was developed and further optimized from a kit produced by Upstate (Millipore catalog #33-047) (Millipore Sigma, Billerica Mass., USA) and has been configured for high throughput screening (HTS) and structure-activity relationship (SAR) screening. Briefly, this procedure exploits the exquisite specificity and high affinity binding of […] phosphatidyl(3,4,5)triphosphate (PIP3) to the GRP1 pleckstrin homology (PH) domain to generate the signal. In the absence of PIP3, an HTRF (Homogeneous Time-Resolved Fluorescence energy transfer) complex is formed consisting of europium (u)-labeled anti-GST, GST tagged GRP1-PH domain, biotin-PIP3 (biotinylated-PIP3) and streptavidin conjugated APC (Allophycocyanin). The native PIP3 produced by PI3-Kinase activity disrupts in a competitive manner the biotin-PIP3 from the pleckstrin homology (PH) domain, resulting in the loss of energy transfer (HTRF complex) and a decrease in the signal. The format of this assay is the same for all 4 isoforms of PI3K; the differences lie in the concentration of enzyme used to achieve robust assay window. The alpha, beta, and delta assays are run at 0.5, 1, and 0.3 nM enzymes and the gamma assay is run at 5 nM enzyme. The ATP concentration is 100 uM in the alpha, beta, and delta assays and 50 uM adenosine triphosphate (ATP) in the gamma assay. All reactions are run at 5 uM PIP2.
(§3) Compounds are serially diluted (3-fold in 100% DMSO) across a 384-well polypropylene source plated from column 3 to column 12 and column 13 to column 22, to yield 10 concentration dose response for each test compound. Columns 1, 2, 23 and 24 contain either only DMSO or pharmacological known control inhibitor. Once titrations are made, 2.5 nL of the compounds on 384 well plates are reformatted and transferred by acoustic dispense in quadruplicates to a 1536 assay plate (Greiner) to assay across all four PI3K isoform enzymes.
(§4) The PI3-Kinase biochemical assay was optimized using the HTRF kit provided by Upstate (Millipore). The assay kit contains six reagents: 1) 4× Reaction Buffer; 2) native PIP2 (substrate); 3) Stop (EDTA); 4) Detection Mix A (Streptavidin-APC); 5) Detection Mix B (Eu-labeled Anti-GST plus GST-tagged PH-domain); 6) Detection Mix C. In addition, the following items were obtained or purchased; PI3Kinase (catalog #'s alpha 14-602, beta 14-603, gamma 14-558 and delta 14-604 from Upstate Biotechnology now EMD Millipore, Mahopac, N.Y., USA), dithiothreitol (Sigma-Aldrich Corp. (St. Louis, Mo., USA) Catalog #D-5545), Adenosine-5′ triphosphate (InVitrogen (Waltham, Mass., USA), Cat#AS001A), native PIP3 (PI(3,4,5)P3, diC8, H^+, CELLSIGNALS, INC., (Columbus, Ohio, USA) Cat #907) DMSO ((Sigma-Aldrich Corp. (St. Louis, Mo., USA) Catalog #472301).
(§5) PI3Kinase Reaction Buffer is prepared by dilution the stock 1:4 with de-ionized water. DTT (DL-Dithiothreitol), phosphatidylinositol 4,5-bisphosphate (PIP2) and Biotin-PIP3 were added to 1536 assay plate at a final concentration of 5 mM, […] and 25 nM on the day of use. Enzyme addition and compound pre-incubation are initiated by the addition of 1.25 ul of PI3K (at twice its final concentration) in the 1× reaction buffer to all wells using a BioRaptr™ (Beckman Coulter, Waltham, Mass. USA). Plates are incubated at room temperature for 15 minutes. Reactions are initiated by addition of 1.25 ul of 2× substrate solution (PIP2 and ATP in 1× reaction buffer) using BioRaptr™. Plates are incubated in humidified chamber at room temperature for one hour. Reactions are quenched by addition of 0.625 uL of stop solution to all wells using the BioRaptr™. […]

PI3Kdelta = PI3Kdelta (Homo sapiens (Human), UniProt O00329); experiment: HTRF PI3K biochemical assay, delta isoform; conditions: 0.3 nM enzyme, 100 uM ATP, 5 uM PIP2, form screened per table
Source text: as §1, §2, §3, §4, §5

PI3Kdelta, sequence (O00329 whole entry, canonical isoform): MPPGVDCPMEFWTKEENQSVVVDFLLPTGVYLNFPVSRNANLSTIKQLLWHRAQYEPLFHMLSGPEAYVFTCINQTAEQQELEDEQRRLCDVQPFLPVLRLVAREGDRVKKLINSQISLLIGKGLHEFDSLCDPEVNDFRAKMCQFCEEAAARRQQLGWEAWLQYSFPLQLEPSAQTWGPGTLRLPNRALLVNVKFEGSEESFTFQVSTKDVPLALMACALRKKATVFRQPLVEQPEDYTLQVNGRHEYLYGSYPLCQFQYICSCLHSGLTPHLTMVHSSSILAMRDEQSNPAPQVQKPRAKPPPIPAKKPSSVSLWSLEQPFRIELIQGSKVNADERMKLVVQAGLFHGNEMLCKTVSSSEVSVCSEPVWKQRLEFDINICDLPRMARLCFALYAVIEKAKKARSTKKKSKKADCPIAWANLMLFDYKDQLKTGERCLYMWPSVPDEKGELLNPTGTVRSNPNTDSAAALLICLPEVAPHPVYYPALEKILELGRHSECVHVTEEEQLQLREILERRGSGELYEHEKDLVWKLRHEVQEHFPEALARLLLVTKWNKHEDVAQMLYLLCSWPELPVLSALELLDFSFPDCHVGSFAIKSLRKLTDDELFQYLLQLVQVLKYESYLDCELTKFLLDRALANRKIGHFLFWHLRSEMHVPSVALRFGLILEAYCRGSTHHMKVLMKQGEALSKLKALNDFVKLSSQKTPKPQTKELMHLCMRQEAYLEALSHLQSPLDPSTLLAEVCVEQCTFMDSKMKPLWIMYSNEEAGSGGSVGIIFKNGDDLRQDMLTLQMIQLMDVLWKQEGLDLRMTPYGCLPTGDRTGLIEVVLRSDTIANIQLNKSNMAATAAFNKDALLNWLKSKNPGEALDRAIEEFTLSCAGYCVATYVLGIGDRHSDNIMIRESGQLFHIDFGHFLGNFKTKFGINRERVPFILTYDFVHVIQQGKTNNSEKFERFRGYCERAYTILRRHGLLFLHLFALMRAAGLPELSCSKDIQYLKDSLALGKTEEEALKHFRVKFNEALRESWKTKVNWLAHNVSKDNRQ
PI3Kdelta, sequence (P27986 whole entry partner, canonical isoform): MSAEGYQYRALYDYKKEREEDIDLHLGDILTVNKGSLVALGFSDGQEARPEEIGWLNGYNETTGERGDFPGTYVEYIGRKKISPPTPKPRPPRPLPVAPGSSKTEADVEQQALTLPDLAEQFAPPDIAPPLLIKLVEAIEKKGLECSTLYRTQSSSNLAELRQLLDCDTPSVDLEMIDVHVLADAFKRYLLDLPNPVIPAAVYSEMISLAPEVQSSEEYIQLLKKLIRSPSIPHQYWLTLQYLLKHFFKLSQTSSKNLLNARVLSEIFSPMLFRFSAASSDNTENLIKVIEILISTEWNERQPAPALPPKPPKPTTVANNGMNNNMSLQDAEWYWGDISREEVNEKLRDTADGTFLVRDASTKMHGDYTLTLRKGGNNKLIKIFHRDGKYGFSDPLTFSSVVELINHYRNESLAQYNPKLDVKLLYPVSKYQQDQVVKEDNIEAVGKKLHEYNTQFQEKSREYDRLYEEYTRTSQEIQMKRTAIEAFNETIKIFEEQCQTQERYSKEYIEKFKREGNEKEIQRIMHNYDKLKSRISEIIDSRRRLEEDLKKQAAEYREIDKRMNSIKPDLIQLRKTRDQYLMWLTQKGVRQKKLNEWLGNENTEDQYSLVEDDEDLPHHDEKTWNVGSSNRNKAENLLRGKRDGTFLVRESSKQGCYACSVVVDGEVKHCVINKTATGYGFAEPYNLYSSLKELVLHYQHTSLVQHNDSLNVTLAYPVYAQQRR
PI3Kalpha, sequence (P42336 whole entry, canonical isoform): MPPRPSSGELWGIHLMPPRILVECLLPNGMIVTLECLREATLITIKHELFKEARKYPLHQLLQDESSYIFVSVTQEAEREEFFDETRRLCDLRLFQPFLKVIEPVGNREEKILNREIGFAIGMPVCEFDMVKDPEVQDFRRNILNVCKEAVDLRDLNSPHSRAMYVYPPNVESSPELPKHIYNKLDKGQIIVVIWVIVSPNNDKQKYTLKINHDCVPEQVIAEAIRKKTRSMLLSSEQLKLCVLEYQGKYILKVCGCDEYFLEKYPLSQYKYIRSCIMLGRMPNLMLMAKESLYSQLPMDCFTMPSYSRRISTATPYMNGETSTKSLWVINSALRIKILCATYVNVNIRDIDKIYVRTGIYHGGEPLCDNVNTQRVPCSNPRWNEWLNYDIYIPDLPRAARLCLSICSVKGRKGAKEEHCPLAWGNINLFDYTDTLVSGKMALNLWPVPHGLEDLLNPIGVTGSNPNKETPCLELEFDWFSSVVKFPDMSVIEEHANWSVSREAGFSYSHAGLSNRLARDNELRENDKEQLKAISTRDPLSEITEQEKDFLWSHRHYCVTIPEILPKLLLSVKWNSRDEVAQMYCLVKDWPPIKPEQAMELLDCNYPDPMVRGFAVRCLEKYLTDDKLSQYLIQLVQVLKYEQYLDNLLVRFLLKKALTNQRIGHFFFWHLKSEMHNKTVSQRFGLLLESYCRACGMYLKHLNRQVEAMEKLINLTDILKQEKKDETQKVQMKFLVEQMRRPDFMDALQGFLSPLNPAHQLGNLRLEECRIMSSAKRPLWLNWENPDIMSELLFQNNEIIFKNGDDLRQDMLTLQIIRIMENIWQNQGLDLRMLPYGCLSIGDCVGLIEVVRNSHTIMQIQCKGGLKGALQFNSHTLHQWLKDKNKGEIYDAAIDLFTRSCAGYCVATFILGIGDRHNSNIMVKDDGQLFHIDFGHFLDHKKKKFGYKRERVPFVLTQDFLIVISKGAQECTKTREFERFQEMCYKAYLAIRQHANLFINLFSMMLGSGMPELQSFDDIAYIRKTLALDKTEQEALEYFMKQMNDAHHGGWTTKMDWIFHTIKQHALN
PI3Kalpha, sequence (P27986 whole entry partner, canonical isoform): as the sequence (P27986 whole entry partner, canonical isoform) above

| SMILES | Selectivity versus PI3Kalpha (PI3Kalpha) | IC50 (PI3Kdelta) |
| --- | --- | --- |
| C[C@@H]1CN(c2nc(C#N)cc(-c3cnn(C)c3)n2)CCN1C(=O)C1CC1 [Compound 5-2, 2-[(3R)-4-(cyclopropylcarbonyl)-3-methylpiperazin-1-yl]-6-(1-methyl-1H-pyrazol-4-yl)pyrimidine-4-carbonitrile] | >10 | 0.24 µM |
| Cn1cc(-c2ncc(C#N)c(N3CC4C[C@H]3CN4C(=O)C3(C)COC3)n2)cn1 (stereo in doubt) [Compound 2-7, 4-{(1S,4R)-5-[(3-methyloxetan-3-yl)carbonyl]-2,5-diazabicyclo[2.2.1]hept-2-yl}-2-(1-methyl-1H-pyrazol-4-yl)pyrimidine-5-carbonitrile] | >10 | 0.32 µM |
| C[C@@H]1CN(c2nc(-c3cnn(C)c3)nc(Cl)c2C#N)CCN1C(=O)C1CC1 [Compound 6-5, 4-chloro-6-[(3R)-4-(cyclopropylcarbonyl)-3-methylpiperazin-1-yl]-2-(1-methyl-1H-pyrazol-4-yl)pyrimidine-5-carbonitrile] | >10 | 0.14 µM |
| CCc1nc(-c2cnn(C)c2)nc(N2CCN(C(=O)C3CC3)[C@H](C)C2)c1C#N [Compound 6-6, 4-[(3R)-4-(cyclopropylcarbonyl)-3-methylpiperazin-1-yl]-6-ethyl-2-(1-methyl-1H-pyrazol-4-yl)pyrimidine-5-carbonitrile] | >10 | 0.22 µM |
| C[C@@H]1CN(c2nc(-c3cnn(C)c3)nc(NCC(F)(F)F)c2C#N)CCN1C(=O)C1CC1 [Compound 6-4, 4-[(3R)-4-(cyclopropylcarbonyl)-3-methylpiperazin-1-yl]-2-(1-methyl-1H-pyrazol-4-yl)-6-[(2,2,2-trifluoroethyl)amino]pyrimidine-5-carbonitrile] | >10 | 0.0083 µM |
| C[C@@H]1CN(c2nc(CCC(F)(F)F)c(C#N)c(-c3cnn(C)c3)n2)CCN1C(=O)C1CC1 [Compound 6-26, 2-[(3R)-4-(cyclopropylcarbonyl)-3-methylpiperazin-1-yl]-4-(1-methyl-1H-pyrazol-4-yl)-6-(3,3,3-trifluoropropyl)pyrimidine-5-carbonitrile] | >10 | 0.012 µM |
| Cn1cc(-c2ncc(C#N)c(N3CC4C[C@H]3CN4c3cccc(OCCF)c3)n2)cn1 (stereo in doubt) [Compound 1-8, 4-{(1S,4R)-5-[3-(2-fluoroethoxy)phenyl]-2,5-diazabicyclo[2.2.1]hept-2-yl}-2-(1-methyl-1H-pyrazol-4-yl)pyrimidine-5-carbonitrile] | >10 | 0.079 µM |
| COc1cccc(N2C[C@@H]3CC2CN3c2nc(-c3cnn(C)c3)ncc2C#N)c1 (stereo in doubt) [Compound 1-14, 4-[(1S,4R)-5-(3-methoxyphenyl)-2,5-diazabicyclo[2.2.1]hept-2-yl]-2-(1-methyl-1H-pyrazol-4-yl)pyrimidine-5-carbonitrile] | >10 | 0.071 µM |
| Cn1cc(-c2ncc(C#N)c(N3CC4C[C@H]3CN4C(=O)c3cocn3)n2)cn1 (stereo in doubt) [Compound 2-11, 2-(1-methyl-1H-pyrazol-4-yl)-4-[(1S,4R)-5-(1,3-oxazol-4-ylcarbonyl)-2,5-diazabicyclo[2.2.1]hept-2-yl]pyrimidine-5-carbonitrile] | >10 | 1.1 µM |
| CC(C)NC(=O)Nc1nc(-c2cnn(C)c2)nc(N2CCN(C(=O)C3CC3)[C@H](C)C2)c1C#N [Compound 6-2, 1-{5-cyano-6-[(3R)-4-(cyclopropylcarbonyl)-3-methylpiperazin-1-yl]-2-(1-methyl-1H-pyrazol-4-yl)pyrimidin-4-yl}-3-(1-methylethyl)urea] | >10 | 0.0056 µM |
| N#Cc1cnc(N2CCOCC2)nc1N1CC2C[C@H]1CN2c1cccc(F)c1 (stereo in doubt) [Compound 1-23, 4-[(1S,4R)-5-(3-fluorophenyl)-2,5-diazabicyclo[2.2.1]hept-2-yl]-2-morpholin-4-ylpyrimidine-5-carbonitrile] | >10 | 0.4 µM |
| Cn1cc(-c2ncc(C#N)c(N3CCN(c4cccc(F)c4)CC3)n2)cn1 [Compound 3-2, 4-[4-(3-fluorophenyl)piperazin-1-yl]-2-(1-methyl-1H-pyrazol-4-yl)pyrimidine-5-carbonitrile] | 7 | 1.6 µM |
| CCCc1nc(-c2cnn(C)c2)nc(N2CCN(C(=O)C3CC3)[C@H](C)C2)c1C#N [Compound 6-24, 4-[(3R)-4-(cyclopropylcarbonyl)-3-methylpiperazin-1-yl]-2-(1-methyl-1H-pyrazol-4-yl)-6-propylpyrimidine-5-carbonitrile] | >10 | 0.2 µM |
| CC(C)c1cnc(-c2cnc(N3CCN(C(=O)C4CC4)[C@H](C)C3)nc2-c2cnn(C)c2)o1 [Compound 5-5, 2-[(3R)-4-(cyclopropylcarbonyl)-3-methylpiperazin-1-yl]-5-[5-(1-methylethyl)-1,3-oxazol-2-yl]-4-(1-methyl-1H-pyrazol-4-yl)pyrimidine] | >10 | 0.41 µM |
| C[C@@H]1CN(c2nc(-c3cnn(C)c3)ncc2C#N)CCN1C(=O)C1CC1 [Compound 4-1, 4-[(3R)-4-(cyclopropylcarbonyl)-3-methylpiperazin-1-yl]-2-(1-methyl-1H-pyrazol-4-yl)pyrimidine-5-carbonitrile] | >10 | 0.11 µM |
| C[C@@H]1CN(c2nc(-c3cnn(C)c3)nc(N3CC(C(F)(F)F)C3)c2C#N)CCN1C(=O)C1CC1 [Compound 6-23, 4-[(3R)-4-(cyclopropylcarbonyl)-3-methylpiperazin-1-yl]-2-(1-methyl-1H-pyrazol-4-yl)-6-[3-(trifluoromethyl)azetidin-1-yl]pyrimidine-5-carbonitrile] | >10 | 0.083 µM |
| Cn1cc(-c2ncc(C#N)c(N3C[C@@H]4C[C@H]3CN4c3cccc(F)c3)n2)cn1 [Compound 1-16, 4-[(1S,4S)-5-(3-fluorophenyl)-2,5-diazabicyclo[2.2.1]hept-2-yl]-2-(1-methyl-1H-pyrazol-4-yl)pyrimidine-5-carbonitrile] | >10 | 0.031 µM |
| C[C@@H]1CN(c2nc(-c3cnn(C)c3)ncc2C#N)CCN1c1cccc([N+](=O)[O-])c1 [Compound 4-11, 4-[(3R)-3-methyl-4-(3-nitrophenyl)piperazin-1-yl]-2-(1-methyl-1H-pyrazol-4-yl)pyrimidine-5-carbonitrile] | >10 | 0.078 µM |
| C[C@@H]1CN(c2nc(-c3cnn(C)c3)nc(NC(=O)NCC(F)(F)F)c2C#N)CCN1C(=O)C1CC1 [Compound 6-16, 1-{5-cyano-6-[(3R)-4-(cyclopropylcarbonyl)-3-methylpiperazin-1-yl]-2-(1-methyl-1H-pyrazol-4-yl)pyrimidin-4-yl}-3-(2,2,2-trifluoroethyl)urea] | >10 | 0.016 µM |
| Cn1cc(-c2ncc(C#N)c(N3CC4CCC(C3)N4c3cccc(F)c3)n2)cn1 [Compound 3-4, 4-[8-(3-fluorophenyl)-3,8-diazabicyclo[3.2.1]oct-3-yl]-2-(1-methyl-1H-pyrazol-4-yl)pyrimidine-5-carbonitrile] | >10 | 1 µM |
